Results taken from ChEMBL document CHEMBL3507680, “University of Dundee, Gates Library screen for HepG2 cell viability”.

Assay: Human HepG2 cell viability assay in 384 well format
Type: toxicity, cell-based
Parameters: dose 125 nL, time 70.5 hour; concentration not given beside the values
Conditions: HepG2 cells, read-out: Inhibition

| Compound | cytotoxicity at 70.5 h |
| --- | --- |
| Cc1nccn1-c1ccc(=O)n(CCNC(=O)c2ccncc2)n1 | -7.2% |
| O=c1ccc(-n2ccnc2)nn1CCNS(=O)(=O)c1ccc(Br)cc1 | 15.1% |
| O=c1ccc(-n2ccnc2)nn1CCNS(=O)(=O)c1ccc(F)c(Cl)c1 | -1.07% |
| Cn1nnn(-c2ccc(NS(=O)(=O)c3ccc(Br)cc3)cc2)c1=O | -2.26% |
| O=C(c1nnn(-c2ccc(F)cc2)n1)N(CCO)Cc1ccccc1 | -1.48% |
| CC1CCCN(C(=O)c2nnn(-c3ccc(C(F)(F)F)cc3)n2)C1 (configuration not stated) | 1.4% |
| O=C1NC[C@@]2(C(=O)O)CN(Cc3cccc(C(F)(F)F)c3)C[C@@H]12 | 7.18% |
| O=C(CCCn1ccnc1)N1CCC2(CC1)[C@H](O)C[C@@H]2OCCO | -7.46% |
| Cc1ccc(C2(CN3CCCC3)CCNCC2)nc1 | -9.4% |
| CCN1CC(C(=O)N2CCC(Oc3ccccc3Cl)CC2)CC1=O (configuration not stated) | 4.13% |
| COCCCC1(CO)CCCN(CCc2ccccc2)C1 (configuration not stated) | -1.1% |
| CNC(=O)C(C)(C)NC(=O)c1cc(OCC2CCC2)cc(C(=O)OC)c1 | -1.19% |
| CC(C)n1ccnc1C1CCCN(c2ccnc3ccccc23)C1 (configuration not stated) | -0.236% |
| Cc1ccc(Cl)cc1C(=O)N1CCC2(CC1)c1ccccc1[C@@H](N)[C@@H]2O | 15.9% |
| O=C(Cc1ccc(O)c(Cl)c1)N1CCN(CC2CC2)[C@@H]2CS(=O)(=O)C[C@@H]21 | 17.4% |
| Cc1ccc([C@@H]2CN(C(=O)c3ccc[nH]3)C[C@H]2NC(=O)C2CC2)cc1 | -8.09% |
| Cc1ccccc1[C@@H]1CN(C(=O)c2ccc3[nH]nnc3c2)C[C@H]1C(=O)O | -4.82% |
| CN(C)Cc1nnc(C2CCN(c3nccc(N)n3)CC2)n1C1CC1 | 2.16% |
| Cn1c(Cn2cccn2)nnc1C1CCCN(c2ccncc2)C1 (configuration not stated) | -8.1% |
| N#Cc1cccc(S(=O)(=O)N2CCCCC2CCN2CCCC2=O)c1 (configuration not stated) | -2.56% |
| Cc1nc(C(=O)N2CCc3c(nc(-c4ccncc4)[nH]c3=O)C2)cs1 | -8.1% |
| CCc1csc(CCNC(=O)C2CC(=O)N(C(C)C)C2)n1 (configuration not stated) | 4.82% |
| COCCc1noc(CNC2CCSC2)n1 (configuration not stated) | -10.2% |

| Compound | cytotoxicity at 70.5 h |
| --- | --- |
| COc1cccc(F)c1C(=O)N1C[C@@H](CN(C)CCO)[C@@H](CO)C1 | -8.49% |
| Cc1cncc(C(=O)N2CCCC(C(=O)CCc3ccccc3)C2)c1 (configuration not stated) | -5.02% |
| O=S1(=O)C[C@@H]2[C@H](C1)N(Cc1ncc[nH]1)CCN2CC1CC1 | -5.56% |
| O=C(c1ccccn1)N1C[C@@H]2CC[C@H](C1)N(C(=O)CCc1cccs1)C2 | -5.4% |
| CC(C)NC(=O)[C@@H]1C[C@H](N)CN1C(=O)c1cc2c([nH]c1=O)CCCC2 | -7.39% |
| CCC(O)CNC(=O)C1(N(C)Cc2ccccc2)Cc2ccccc2C1 (configuration not stated) | -3.52% |
| CC(C)N1CCC(NCc2cccnc2N(C)Cc2ccccc2)CC1 | -5.38% |
| Cc1ncccc1OC1(C(=O)NCCCN2CCOCC2)CCNCC1 | -11.7% |
| CC(C)c1nc(N2CCN3CCCC3C2)c2cnn(C)c2n1 (configuration not stated) | 1.45% |
| CCCS(=O)(=O)N1C[C@H]2OC(=O)N(CCc3cccc(Cl)c3)[C@H]2C1 | -4.21% |
| COc1cccc2c1OCC(CNC(=O)CCCN1CCOCC1)C2 (configuration not stated) | -7.84% |
| Cc1ccc(F)c(OC2(C(=O)O)CCN(C(=O)N3CCCC3)CC2)c1 | -9.12% |
| Cc1ccc(C(NC(=O)[C@H]2CC[C@@H](O)CC2)c2cccnc2)cc1C (some centres not stated) | -6.91% |
| Cc1ncnc(NCc2cc3n(n2)CCCN(S(C)(=O)=O)C3)c1C | -12.3% |
| O=C(CSc1ccccn1)N1C[C@H]2CC[C@@H]1CN(Cc1cscn1)C2 | -8.62% |
| CC(=O)c1cc(CC(=O)NCc2ccc(F)cc2)cs1 | -1.82% |
| CCN(C)Cc1cnc(S(=O)(=O)CC)n1CCOC | -3.96% |
| COC[C@@]12CC[C@@H](N3CCOCC3)C[C@H]1CCN(c1ncccc1Cl)C2 | -4.77% |
| CN(C)C(=O)c1ccc2c(c1)N(C)C(CC(=O)NC(C)(C)CO)CO2 (configuration not stated) | 18.8% |
| Cc1ccccc1C1CCCN1C(=O)CN1CC2(CCNCC2)OC1=O (configuration not stated) | -4.74% |
| Cc1cc(N2CCN(Cc3ccccc3)CC(O)C2)cc(C)n1 (configuration not stated) | 11.5% |
| COc1ccc(C(=O)N2CC[C@H](CO)[C@H](O)C2)c(C)c1 | -4.34% |
| CSc1ncccc1C(=O)N1C[C@H]2CC[C@@H]1CN(c1ncccn1)C2 | -10.3% |

| Compound | cytotoxicity at 70.5 h |
| --- | --- |
| O=C1CC(NCc2ccncc2)CN1Cc1cccc(F)c1 (configuration not stated) | 1.94% |
| CCN1CC2(CCC1=O)CCN(C(=O)c1ccc(Cl)cc1O)CC2 | -2.93% |
| CCCS(=O)(=O)NCC1CCOc2ccccc2C1 (configuration not stated) | -1.69% |
| O=C(Nc1nncs1)NC1CCN(Cc2ccccc2)C1 (configuration not stated) | -5.56% |
| CN(C)c1cc(C(=O)N2CCCC2)ccn1 | -10% |
| Cc1nccn1C1CCCN(C(=O)CCOCC(F)(F)F)C1 (configuration not stated) | 17.2% |
| Cc1cc(CN2CCC(N(C)Cc3noc(C4CC4)n3)C2)on1 (configuration not stated) | 19.5% |
| Cn1cnc2c1CCN(Cc1cccc(C(=O)N3CCCCC3)c1)C2 | -7.19% |
| COc1cc(C)nc(N2CCN(C(=O)COCC3CC3)CC2)n1 | -3.61% |
| O=C1C(NCc2nnc3n2CCCC3)CCN1c1ccccc1F (configuration not stated) | -20.6% |
| Cc1ccc(-c2cc(C(=O)NCCN3CCCS3(=O)=O)[nH]n2)cc1 | 11.7% |
| COc1ccnc(N2CCN(C(=O)COCC(F)(F)F)CC2)n1 | 13% |
| CC(O)CN1CCC(CNCc2ccccc2Cl)CC1 (configuration not stated) | -7.56% |
| CC(C)CNC(=O)c1cccc(CN2CCc3c(ncn3C)C2)c1 | -13.6% |
| CCn1ccnc1CN1CCN(CC(O)c2ccc(OC)cc2)CC1 (configuration not stated) | 12.3% |
| Cn1nc2c(cc1=O)CN(Cc1nc(-c3ccccn3)no1)CC2 | -9% |
| Cc1ccc(N2CCCC(NCc3nnc4n3CCCC4)C2=O)cc1 (configuration not stated) | -10.2% |
| CCn1nc2c(cc1=O)CN(Cc1nc(-c3cccnc3)no1)CC2 | -14.4% |
| O=C(NCc1nn(-c2ccccc2)c2c1CCC2)NC1CCOCC1 | -0.276% |
| CNC(=O)NCc1nn(-c2ccccc2)c2c1CCC2 | -4.98% |
| CN(Cc1noc(C2CC2)n1)C1CCN(Cc2ncc[nH]2)C1 (configuration not stated) | 12.2% |
| CCc1cc(CNC(=O)N2CCC(Cc3cnn(C)c3)C2)on1 (configuration not stated) | -4.1% |
| Cc1occc1CNC(=O)N1CCC(Cc2cnn(C)c2)C1 (configuration not stated) | -2.55% |

| Compound | cytotoxicity at 70.5 h |
| --- | --- |
| Cn1cc(CC2CCN(C(=O)NCc3cccc(C#N)c3)C2)cn1 (configuration not stated) | -5% |
| COc1ccccc1CC(=O)N1CCCC(CNS(C)(=O)=O)C1 (configuration not stated) | -9.26% |
| CS(=O)(=O)NCC1CCCN(C(=O)CCCc2ccccc2)C1 (configuration not stated) | -8.93% |
| Cc1nccn1C1CCCN(C(=O)COC2CCCC2)C1 (configuration not stated) | -4.55% |
| Cc1nccn1C1CCCN(C(=O)COCC2CC2)C1 (configuration not stated) | -6.29% |
| Cc1cnn(CC2CCCN2Cc2cc(C)no2)c1 (configuration not stated) | -14% |
| CCc1ocnc1C(=O)N1CCCC1c1noc(C2CC2)n1 (configuration not stated) | -9.72% |
| CN(Cc1noc(C2CC2)n1)C1CCN(Cc2ccc(F)c(F)c2)C1 (configuration not stated) | -8.17% |
| O=C(COCC(F)(F)F)N1CCCC(n2cccn2)C1 (configuration not stated) | -8.85% |
| CNc1cc(N2CCCC2CNCc2csc(C(C)C)n2)ncn1 (configuration not stated) | 28.6% |
| CCn1ccnc1CN1CCCN(C(=O)c2cnn(C)c2)CC1 | -7.1% |
| CC(C(=O)N1CCCN(Cc2cscn2)CC1)N1CCOCC1 (configuration not stated) | -8.05% |
| CN1CCN(c2cc(CNC(=O)c3cnccn3)ccn2)CC1 | -3.35% |
| Cc1cc(C(=O)NCc2ccnc(N3CCOCC3)c2)c(C)s1 | -13.9% |
| CN1CCN(c2cc(CNC(=O)c3ccsc3)ccn2)CC1 | 1% |
| CC(Cc1ccco1)NC(=O)Nc1ccc(N2CCCC2)nc1 (configuration not stated) | -7.87% |
| NC(=O)Cn1cc(NC(=O)N2CCC(c3ccccc3)CC2)cn1 | -5.24% |
| CC(CO)NC(=O)Nc1ccc(S(C)(=O)=O)nc1 (configuration not stated) | -2.27% |
| Cc1noc(C2CCCN(C(=O)c3ccc(N(C)C)nc3)C2)n1 (configuration not stated) | -8.13% |
| Cc1nc(CN2CCN(C(C)c3nc(C4CC4)no3)CC2)oc1C (configuration not stated) | -3.6% |
| Cc1noc(C2CCN(C(=O)Nc3ccc(N(C)C)nc3)CC2)n1 | 1.32% |
| CCn1ccnc1CN1CCCN(C(=O)c2csc(C)n2)CC1 | -5.02% |
| Cc1ncc(Cl)c(C(=O)N2CCCC(n3nc(C)nc3C)C2)n1 (configuration not stated) | -6.14% |

| Compound | cytotoxicity at 70.5 h |
| --- | --- |
| CC(C)(C)c1n[nH]c(C2CN(C(=O)CCc3ccco3)CCO2)n1 (configuration not stated) | 1.28% |
| CCn1ccnc1CN1CCCN(C(=O)c2ccsc2)CC1 | -2.37% |
| O=C(c1ccc(N2CCOCC2)cc1)N1CCCC(n2ccnc2)C1 (configuration not stated) | 20.8% |
| Cc1nc(C)n(CC2CCCN(CC(=O)Nc3ccncc3)C2)n1 (configuration not stated) | -5.01% |
| Cc1nc(C)n(CC2CN(Cc3cscn3)CCO2)n1 (configuration not stated) | -6.91% |
| O=C(c1cccc2ncccc12)N1CCCC(n2ccnc2)C1 (configuration not stated) | -2.04% |
| CC(C)Cc1noc(CN2CCN(S(C)(=O)=O)CC2)n1 | -7.6% |
| O=C(NCc1ccoc1)Nc1cc(C(F)(F)F)c[nH]c1=O | 1.11% |
| COCc1cccc(CNCc2c(C(C)C)nn(C)c2N(C)C)c1 | -7.7% |
| Cc1cc(C)c(CNC(=O)CCC2CCCO2)c(=O)[nH]1 (configuration not stated) | -6.31% |
| Cc1cc(C)n(CC2CN(Cc3cc(C)on3)CCO2)n1 (configuration not stated) | -3.83% |
| Cn1cc(CCNCc2cc(Br)c3c(c2)OCO3)cn1 | 23.7% |
| Cc1nnc2n1CCN(C(=O)c1cc(Br)c(Cl)[nH]1)C2 | -1.01% |
| CC(C)c1nnc2n1CCN(C(=O)c1cc(Cl)c[nH]1)C2 | 0.408% |
| CNc1snc(C)c1C(=O)N1CCC(Nc2ccc(C)nn2)CC1 | -3.58% |
| Cn1nccc1C(=O)Nc1cc(C(F)(F)F)c[nH]c1=O | -6.13% |
| O=C(COc1ccc2c(c1)CCC2)NS(=O)(=O)c1cccnc1 | -10.3% |
| COc1cccc(OCC(=O)NS(=O)(=O)c2cccnc2)c1 | -3.41% |
| Cc1nc(C)n(CC2CCCCN2CC(=O)Nc2c(C)n[nH]c2C)n1 (configuration not stated) | -1.79% |
| CCCc1noc(CN2CCN(CCO)CC2)n1 | -1.1% |
